Test results: US10375956B2, “Herbicidally active 2-(substituted-phenyl)-cyclopentane-1,3-dione compounds and derivatives thereof” (Syngenta Limited, priority 2013, dated 2019)
Read-outs that look alike come from different tables or passages of the source.

Tests used:
Type in all cases: in vivo
[1] = tested on: Amaranthus retroflexus (AMARE); experiment: Test 1 glasshouse assay, post-emergence herbicidal activity; conditions: 312 h, post-emergence (Example 1B Table 1), after 13 days, read-out: Percentage phytotoxicity AMARE
How it was run: (§1)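 Plants sprayed post-emergence after 8 days' growth with active ingredient in acetone/water (50:50) plus 0.5% Tween 20; glasshouse at 24/16° C day/night, 14 h light, 65% humidity. Visual percentage phytotoxicity scored 13 days later (100% = total damage, 0% = none).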

Setaria faberi (SETFA) = experiment: as above; conditions: 312 h, post-emergence (Example 1B Table 1), after 13 days, read-out: Percentage phytotoxicity SETFA
How it was run: as §1

[2] = tested on: Abutilon theophrasti (ABUTH); experiment: as above; conditions: 312 h, post-emergence (Example 1B Table 1), after 13 days, read-out: Percentage phytotoxicity ABUTH
How it was run: as §1

[3] = tested on: Zea mays (ZEAMX, corn/maize); experiment: as above; conditions: 312 h, post-emergence (Example 1B Table 1), after 13 days, read-out: Percentage phytotoxicity ZEAMX
How it was run: as §1

[4] = tested on: Alopecurus myosuroides (ALOMY); experiment: as above; conditions: 312 h, after 13 days, read-out: Percentage phytotoxicity ALOMY
How it was run: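 Plants sprayed 8 days after sowing with active ingredient in acetone/water (50:50) containing 0.5% Tween 20, grown in glasshouse at 24/16°C day/night, 14 h light, 65% humidity. Phytotoxicity scored visually after 13 days as percentage damage (100% = total damage; 0% = none).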

[5] = tested on: Glycine max (GLXMA, soybean) cultivar Nikko; experiment: Biological Example 3 glasshouse assay, post-emergence, various adjuvant systems; conditions: 240 g/ha, 14 or 15 DAA, adjuvant 0.5% v/v TEHP + 1.0% v/v AMS + 12.5% v/v IPA, crop
Protocol: Post-emergence foliar spray application, 200 L/ha, usually one or two replicates for the weeds (depending on application rate), and two replicates for soybean.
Standard warm conditions (tropical), in glasshouse. Specifically, the glasshouse bay conditions are 24° C./18° C. day/night; 16/8 hours light/dark; 65% humidity.
The herbicidal application takes place at the following growth stages for plants which include inter alia one or more of the following plants (usually the herbicidal application takes place on at least the following plants: DIGSA, ELEIN, SETFA, ZEAMX, GLXMA Nikko, and GLXMA TMG133, and often also either BRADC or BRAPP):
Glycine max (GLXMA, soybean) cultivar “Nikko”—growth stage: 1st trifoliate
Each test compound is applied with one of the following adjuvant systems (all percentages are final concentrations in the aqueous spray mixture):
Adjuvant system 2: 0.5% v/v Hexamoll™ DINCH**, 1.0% v/v AMS (ammonium sulphate) and 12.5% v/v IPA (isopropyl alcohol).
Adjuvant system 3: 0.5% v/v tris-(2-ethylhexyl)phosphate (“TEHP”), 1.0% v/v AMS (ammonium sulphate) and 12.5% v/v IPA (isopropyl alcohol).
Seeds of the weed (including volunteer) plants, typically including inter alia Digitaria sanguinalis (DIGSA), Eleusine indica (ELEIN), Setaria faberi (SETFA), Zea mays (ZEAMX, corn), and sometimes also [either Brachiaria decumbens (BRADC) or Brachiaria platyphylla (BRAPP)], are sown in seed trays (troughs) containing clay loam soil (pH 7.0, 2.2% organic matter, “Trough Mix A”); and soybean seed is sown in pots containing the same soil with 3 soybean seedlings per pot. The plants are sprayed with the test herbicide when they reach the growth stages mentioned above.
The test herbicidal solutions are prepared by mixing the appropriate aliquots of the test substance(s) and one of the adjuvant systems indicated above *** in deionised water to give the desired treatment concentration.
The herbicidal application is made as a foliar spray, using a tracksprayer. Following the herbicidal application, the plants are watered twice per day for the duration of the test.
A visual assessment of the % herbicidal damage is made 7 and 14 Days After herbicide Application (DAA) (or, in a minority of cases, 7 and 15 DAA), and the results are recorded as % visual herbicidal damage where 0%=no damage to plants and 100%=plant totally killed.
Compounds A2 and A7 were tested using the 0.5% v/v Hexamoll™ DINCH™+1.0% v/v AMS+12.5% v/v IPA adjuvant system. Compounds A11, A12, A14, A20 and A21 were tested using the 0.5% v/v tris-(2-ethylhexyl)phosphate (“TEHP”)+1.0% v/v AMS+12.5% v/v IPA adjuvant system.
The percentages of herbicidal damage/plant control, at 14 Days After herbicide Application (DAA) (or, in some cases, at 15 DAA), for the Compounds tested and for some of the plants tested, were in the following percentage ranges. For the tested compounds, the phytotoxicity results shown herein are generally the average of 2 or 3 repetitions (for the grassy weeds including corn) or the average of 2 repetitions (for soybean for most of the tested compounds). However, for Compound A2 on soybean there was 1 repetion only.

[6] = tested on: Triticum aestivum (TRZAW, winter wheat); experiment: Test 1 glasshouse assay, post-emergence herbicidal activity; conditions: 312 h, post-emergence (Example 1B Table 2), after 13 days, crop plant, read-out: Percentage phytotoxicity TRZAW
How it was run: (§2)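 Post-emergence: plants sprayed after 8 days' growth in a glasshouse (24/16 °C day/night, 14 h light, 65% humidity) with compound in acetone/water 50:50 containing 0.5% Tween 20. Phytotoxicity was scored visually 13 days later as percent damage (0 = none, 100 = total).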

Avena fatua (AVEFA) = experiment: as above; conditions: 312 h, post-emergence (Example 1B Table 2), after 13 days, read-out: Percentage phytotoxicity AVEFA
How it was run: as §2

Lolium perenne (LOLPE) = experiment: as above; conditions: 312 h, post-emergence (Example 1B Table 2), after 13 days, read-out: Percentage phytotoxicity LOLPE
How it was run: as §2

Compound `C#CCC1CC(=O)C(c2c(Cl)cc(-c3ccc(F)cc3F)cc2OC)C1=O` (stereo not shown) [Compound A12] has a pest or weed control at 30 g/ha ([1]; 30 g/ha) of 30%, a pest or weed control at 250 g/ha ([1]; 250 g/ha) of 80% and a pest or weed control at 30 g/ha (Setaria faberi (SETFA); 30 g/ha) of 100%. The pest or weed control at 250 g/ha (Setaria faberi (SETFA); 250 g/ha) was 100%, the pest or weed control at 30 g/ha ([2]; 30 g/ha) was 50% and the pest or weed control at 250 g/ha ([2]; 250 g/ha) was 80%. The pest or weed control at 30 g/ha ([3]; 30 g/ha) was 100%, the pest or weed control at 250 g/ha ([3]; 250 g/ha) was 100% and the pest or weed control at 30 g/ha ([4]; post-emergence (Example 1B Table 1), 30 g/ha) was 80%. For the same compound, the pest or weed control at 250 g/ha ([4]; post-emergence (Example 1B Table 1)) was 100%, the pest or weed control at 62.5 g/ha ([4]; post-emergence (Example 1B Table 2), 62.5 g/ha) was 60% and the pest or weed control at 250 g/ha ([4]; post-emergence (Example 1B Table 2)) was 100%. The “percentage phytotoxicity on Glycine max cultivar Nikko” value [5] was 15%, the plant injury at 62.5 g/ha ([6]; 62.5 g/ha) was 70% and the plant injury at 250 g/ha ([6]; 250 g/ha) was 80%. The pest or weed control at 62.5 g/ha (Avena fatua (AVEFA); 62.5 g/ha) was 60%, the pest or weed control at 250 g/ha (Avena fatua (AVEFA); 250 g/ha) was 100% and the pest or weed control at 62.5 g/ha (Lolium perenne (LOLPE); 62.5 g/ha) was 70%. For the same compound, the pest or weed control at 250 g/ha (Lolium perenne (LOLPE); 250 g/ha) was 100%.
